Data on 3 compounds can be found in patent publication US9988430B2, “Stable GLP-1 based GLP-1/glucagon receptor co-agonists” (Novo Nordisk A/S, priority 2014, dated 2018).

Data set [1] concerns the target T1, human GLP-1 receptor (Homo sapiens, UniProt P43220).
T1 construct: expressed in transfected cells; host or cells: membranes of BHK cells, parent line BHKTS13, clone FCW467-12A
The experiment in a line: Assay (II)(a): GLP-1 receptor binding, [125I]GLP-1 displacement, SPA on BHK membranes. The conditions noted are these: displacement of [125I]GLP-1, membranes with human GLP-1 receptor; read-out: IC50 GLP-1R. The essentials:
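Membranes from BHK cells expressing human GLP-1 receptor with WGA SPA beads, [125I]GLP-1(7-36)NH2 (480 pM added solution) and compound in HEPES pH 7.4 buffer with EGTA, MgCl2, Tween 20. Incubated 2 h at 30° C; SPA counts fitted by non-linear regression to IC50 in nM.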

A short description of data set [2]: Assay (V): chemical stability assessment by RP-UPLC. Type of data set: physicochemical. Conditions: 14 days at 37° C. in phosphate buffer (pH 7.3). How it is done:
Assay (V): Chemical Stability Assessment
The purpose of this assay is to assess the chemical stability of the GLP-1 derivatives of the present invention in aqueous solutions.
Chemical stability of GLP-1 derivatives may be investigated by RP-UPLC separation and UV detection. Lyophilized samples are dissolved in a 8 mM Phosphate buffer pH 8.6, followed by adjustment to pH 7.3 using HCl to a final concentration of 333 μM. Samples are incubated for 14 days at 5° C. and 37° C. followed by RP-UPLC analysis. Purity is defined as the area percentage of the main peak in relation to the total area of all integrated peaks in each chromatogram. Purity loss, also referred to herein as chemical degradation, after 14 days at 37° C. is determined as the difference in purity between the samples incubated at 5° C. and 37° C., divided by the purity of the sample after incubation for 14 days at 5° C.
RP-UPLC analysis is performed using a Waters BEH130 2.1 mm×150 mm, 1.7 μm column operated at 50° C. and a flow rate of 0.4 mL/min using a mobile phase system consisting of A: 0.05% TFA in MQ-water, and B: 0.05% TFA in Acetonitrile. UV-detection is performed at 215 nm. The typical gradient profile used for most of the samples is shown below.
For some individual derivatives eluting at substantially different retention times compared with the majority of derivatives, some adjustments to the gradient profile are made to better enable purity assessment comparison across samples.

For data set [3], the target named is T1, human GLP-1 receptor. The experiment in a line: Assay (I)(a): GLP-1 receptor potency, CRE luciferase reporter gene assay in BHK cells. The conditions noted are these: BHK cells expressing human GLP-1 receptor, read-out: EC50 GLP-1R. Type of data set: cell-based. How it is done:
Assay (I): GLP-1 and Glucagon Receptor Potency The purpose of this example was to test the activity or potency, of the GLP-1 derivatives of the invention, in vitro. The in vitro potency is the measure of human GLP-1 receptor (GLP-1R) or glucagon receptor (glucagonR) activation, respectively, in a whole cell assay. In vitro potency was determined by measuring the cellular response of human GLP-1 or glucagon receptor activation, respectively, in a reporter gene assay. The assay was performed in a BHK cell line that stably expresses either the human GLP-1 receptor or the human glucagon receptor and comprises the DNA for the cAMP response element (CRE) coupled to a promoter and the gene for firefly luciferase (CRE luciferase). […] When assay incubation was completed, the luciferase substrate (luciferin) was added and the enzyme converted luciferin to oxyluciferin and produces bioluminescence. The luminescence was measured as the readout for the assay. (a) GLP-1 Receptor Activation The cells used in this assay (clone FCW467-12A/KZ10-1) were BHK cells with BHKTS13 as a parent cell line. The cells were derived from a clone (FCW467-12A) that expresses the human GLP-1 receptor and were established by further transfection with CRE luciferase to obtain the current clone. The cells were cultured at 5% CO2 in DMEM medium with 10% FBS, 1×GlutaMAX, 1 mg/ml G418, 240 nM MTX (methotrexate) and 1% pen/strep (penicillin/streptomycin). They were aliquoted and stored in liquid nitrogen. Before each assay, an aliquot was taken up and washed three times in PBS before being suspended at the desired concentration in assay medium. For 96-well plates the suspension was made to give a final concentration of 5×10EE3 cells/well. The following chemicals were used in the assay: Pluronic F-68 (10%) (Gibco 2404), Ovalbumin (Sigma A5503), DMEM w/o phenol red (Gibco 11880-028), 1 M Hepes (Gibco 15630), Glutamax 100× (Gibco 35050) and steadylite plus (PerkinElmer 6016757). Assay Medium consisted of DMEM w/o phenol red, 10 mM Hepes, 1×GlutaMAX, 2% Ovalbumin and 0.2% Pluronic F-68. Cell stocks were thawed in a 37° C. water bath. Cells were washed three times in PBS. The cells were counted and adjusted to 5×10EE3 cells/50 μl (1×10EE5 cells/ml) in Assay Medium. A 50 μl aliquot of cells was transferred to each well in the assay plate. Stocks of the test compounds and reference compounds were diluted to a concentration of […] in Assay Medium. Compounds were diluted 10-fold to give the following concentrations: 2×10EE-6 M, 2×10EE-7 M, 2×10EE-8 M; 2×10EE-9 M, 2×10EE-10 M, 2×10EE-11 M, 2×10EE-12 M and 2×10EE-13 M. For each compound a blank assay medium control was also included. A 50 μl aliquot of compound or blank was transferred from the dilution plate to the assay plate. Compounds were tested at the following final concentrations: 1×10EE-6 M, 1×10EE-7 M, 1×10EE-8 M; 1×10EE-9 M, 1×10EE-10 M, 1×10EE-11 M and 1×10EE-12 M and 1×10EE-13 M. The assay plate was incubated for 3 h in a 5% CO2 incubator at 37° C. The assay plate was removed from the incubator and allowed to stand at room temperature for 15 min. A 100 μl aliquot of steadylite plus reagent was added to each well of the assay plate (reagent is light sensitive). Each assay plate was covered with aluminum foil to protect it from light and shaken for 30 min at room temperature. Each assay plate was read in a Perkin Elmer TopCount NXT instrument. The data from the TopCount instrument was transferred to GraphPad Prism software. The software performed a non-linear regression (log(agonist) vs response-Variable slope (four parameter)). EC50 values were calculated by the software and reported in pM.

*1 amine or outer side, *2 acyl side, *3 side chain or, on linkers, in order; H or OH if unused. Where a SMILES comes first, the peptide text is derived from it. Bridges are numbered along the chain shown (N, C = ends). Roman numbers before positions name the chains, in order. [ ]: non-standard residue; d: D form. The star is where a group is joined. C20 diacid = O=C(O)CCCCCCCCCCCCCCCCCCC(=O)*; C18 diacid = O=C(O)CCCCCCCCCCCCCCCCC(=O)*; γGlu = O=C(O)[C@H](CCC(=O)[*:2])N[*:1]; Desaminohistidyl = O=C(CCc1c[nH]cn1)*; Ac4c = NC1(C(=O)O)CCC1; Aib = CC(C)(N)C(=O)O

T1 sequence (P43220 24-463): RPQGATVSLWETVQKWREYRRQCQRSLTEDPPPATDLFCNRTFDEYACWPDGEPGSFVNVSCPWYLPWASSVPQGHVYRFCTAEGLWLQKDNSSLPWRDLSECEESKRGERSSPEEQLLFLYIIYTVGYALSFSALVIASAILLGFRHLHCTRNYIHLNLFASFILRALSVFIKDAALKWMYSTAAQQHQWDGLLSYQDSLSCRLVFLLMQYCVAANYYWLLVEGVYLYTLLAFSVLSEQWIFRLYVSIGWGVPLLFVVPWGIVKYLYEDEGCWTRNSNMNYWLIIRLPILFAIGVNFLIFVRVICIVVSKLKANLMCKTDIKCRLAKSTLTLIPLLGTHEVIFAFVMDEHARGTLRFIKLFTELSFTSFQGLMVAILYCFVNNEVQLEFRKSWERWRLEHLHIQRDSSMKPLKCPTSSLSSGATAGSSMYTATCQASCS

For the compound `CC[C@H](C)[C@H](NC(=O)[C@H](Cc1ccccc1)NC(=O)[C@H](CCC(=O)O)NC(=O)[C@H](CCCNC(=N)N)NC(=O)[C@H](C)NC(=O)[C@H](C)NC(=O)[C@H](CCC(N)=O)NC(=O)[C@H](CCC(=O)O)NC(=O)[C@H](CCC(=O)O)NC(=O)[C@H](CC(C)C)NC(=O)[C@H](Cc1ccc(O)cc1)NC(=O)[C@H](CCCCN)NC(=O)[C@H](CO)NC(=O)[C@H](Cc1ccc(O)cc1)NC(=O)[C@H](CC(=O)O)NC(=O)[C@H](CO)NC(=O)[C@@H](NC(=O)[C@H](Cc1ccccc1)NC(=O)[C@@H](NC(=O)CNC(=O)[C@H](Cc1c[nH]cn1)NC(=O)C1(NC(=O)CCc2c[nH]cn2)CCC1)[C@@H](C)O)[C@@H](C)O)C(=O)N[C@@H](C)C(=O)N[C@@H](Cc1c[nH]c2ccccc12)C(=O)N[C@@H](CC(C)C)C(=O)N[C@@H](CC(C)C)C(=O)N[C@@H](CCCCN)C(=O)N[C@@H](CCCCNC(=O)CNC(=O)[C@H](CO)NC(=O)[C@H](CCC(=O)O)NC(=O)CNC(=O)[C@H](CO)NC(=O)CC[C@H](NC(=O)CC[C@H](NC(=O)CCCCCCCCCCCCCCCCC(=O)O)C(=O)O)C(=O)O)C(N)=O` [Example 1, N^ε35-[2-[[(2S)-2-[[(2S)-4-carboxy-2-[[2-[[(2S)-2-[[(4S)-4-carboxy-4-[[(4S)-4-carboxy-4-(17-carboxyheptadecanoylamino)butanoyl]amino]butanoyl]amino]-3-hydroxypropanoyl]amino]acetyl]amino]butanoyl]amino]-3-hydroxypropanoyl]amino]acetyl]-[Imp7,Acb8,His9,Tyr16,Lys18,Glu22,Arg26,Leu33,Lys35]-GLP-1-(7-35)-peptide amide] (I: Desaminohistidyl-[Ac4c]HGTFTSDYSKYLEEQAAREFIAWLLKK-NH2 / II: {C18 diacid-γGlu-γGlu}-SGESG; amide I:28-II:C), on human GLP-1 receptor [1], the concentration for half-maximal inhibition (IC50) (in general, the midpoint of a concentration-inhibition curve) amounted to 700 pM. Further, the “Chemical stability: Chemical degradation over 14 days at 37° C.” value in data set [2] was 1.5%.

On to `CC[C@H](C)[C@H](NC(=O)[C@H](Cc1ccccc1)NC(=O)[C@H](CCC(=O)O)NC(=O)[C@H](CCCNC(=N)N)NC(=O)[C@H](C)NC(=O)[C@H](C)NC(=O)[C@H](CCC(N)=O)NC(=O)[C@H](CCC(=O)O)NC(=O)[C@H](CCC(=O)O)NC(=O)[C@H](CC(C)C)NC(=O)[C@H](Cc1ccc(O)cc1)NC(=O)[C@H](CCCCN)NC(=O)[C@H](CO)NC(=O)[C@@H](NC(=O)[C@H](CC(=O)O)NC(=O)[C@H](CO)NC(=O)[C@@H](NC(=O)[C@H](Cc1ccccc1)NC(=O)[C@@H](NC(=O)CNC(=O)[C@H](Cc1c[nH]cn1)NC(=O)C(C)(C)NC(=O)CCc1c[nH]cn1)[C@@H](C)O)[C@@H](C)O)C(C)C)C(=O)N[C@@H](C)C(=O)N[C@@H](Cc1c[nH]c2ccccc12)C(=O)N[C@@H](CC(C)C)C(=O)N[C@@H](CC(C)C)C(=O)N[C@@H](CCCCNC(=O)CNC(=O)[C@H](CO)NC(=O)[C@H](CCC(=O)O)NC(=O)CNC(=O)[C@H](CO)NC(=O)CC[C@H](NC(=O)CC[C@H](NC(=O)CCCCCCCCCCCCCCCCCCC(=O)O)C(=O)O)C(=O)O)C(=O)N[C@H](C(N)=O)[C@@H](C)O` [Example 30, N^ε34-[2-[[(2S)-2-[[(2S)-4-carboxy-2-[[2-[[(2S)-2-[[(4S)-4-carboxy-4-[[(4S)-4-carboxy-4-(19-carboxynonadecanoylamino)butanoyl]amino]butanoyl]amino]-3-hydroxypropanoyl]amino]acetyl]amino]butanoyl]amino]-3-hydroxypropanoyl]amino]acetyl]-[Imp7,Aib8,His9,Lys18,Glu22,Arg26,Leu33,Thr35]-GLP-1-(7-35)-peptide amide] (I: Desaminohistidyl-[Aib]HGTFTSDVSKYLEEQAAREFIAWLLKT-NH2 / II: {C20 diacid-γGlu-γGlu}-SGESG; amide I:27-II:C), for which, at human GLP-1 receptor [1], the IC50 was found to be 400 pM. Further, on human GLP-1 receptor [3], the 50% effective concentration (EC50) (commonly the concentration giving half of the maximal effect) was determined as 5 pM.

Turning to `CC[C@H](C)[C@H](NC(=O)[C@H](Cc1ccccc1)NC(=O)[C@H](CCC(=O)O)NC(=O)[C@H](CCCNC(=N)N)NC(=O)[C@H](C)NC(=O)[C@H](C)NC(=O)[C@H](CCC(N)=O)NC(=O)[C@H](CCC(=O)O)NC(=O)[C@H](CCC(=O)O)NC(=O)[C@H](CC(C)C)NC(=O)[C@H](Cc1ccc(O)cc1)NC(=O)[C@H](CCCNC(=N)N)NC(=O)[C@H](CO)NC(=O)[C@@H](NC(=O)[C@H](CC(=O)O)NC(=O)[C@H](CO)NC(=O)[C@@H](NC(=O)[C@H](Cc1ccccc1)NC(=O)[C@@H](NC(=O)CNC(=O)[C@H](Cc1c[nH]cn1)NC(=O)CNC(=O)CCc1c[nH]cn1)[C@@H](C)O)[C@@H](C)O)C(C)C)C(=O)N[C@@H](C)C(=O)N[C@@H](Cc1c[nH]c2ccccc12)C(=O)N[C@@H](CC(C)C)C(=O)N[C@@H](CC(C)C)C(=O)N[C@@H](CCCCNC(=O)CNC(=O)[C@H](CO)NC(=O)[C@H](CCC(=O)O)NC(=O)CNC(=O)[C@H](CO)NC(=O)CC[C@H](NC(=O)CC[C@H](NC(=O)CCCCCCCCCCCCCCCCC(=O)O)C(=O)O)C(=O)O)C(=O)N[C@H](C(N)=O)[C@@H](C)O` [Example 37, N^ε34-[2-[[(2S)-2-[[(2S)-4-carboxy-2-[[2-[[(2S)-2-[[(4S)-4-carboxy-4-[[(4S)-4-carboxy-4-(17-carboxyheptadecanoylamino)butanoyl]amino]butanoyl]amino]-3-hydroxypropanoyl]amino]acetyl]amino]butanoyl]amino]-3-hydroxypropanoyl]amino]acetyl]-[Imp7,Gly8,His9,Arg18,Glu22,Arg26,Leu33,Thr35]-GLP-1-(7-35)-peptide amide] (I: Desaminohistidyl-GHGTFTSDVSRYLEEQAAREFIAWLLKT-NH2 / II: {C18 diacid-γGlu-γGlu}-SGESG; amide I:27-II:C), on human GLP-1 receptor [1], the IC50 was found to be 3200 pM. Besides, at human GLP-1 receptor [3], the EC50 was found to be 8 pM.
